Results from patent US6777418B2, “Retinoid compounds (I)” (Syntex (U.S.A.) LLC, priority 2000, dated 2004).
Values joined by “and” are separate entries in the source; they are usually repeats but may differ in a detail not shown here. Identical values can stand only once.

| Structure (SMILES) | melting point |
| --- | --- |
| CC1(C)CCC(C)(C)c2cc(-c3ccsc3)c(/C=C/c3ccc(C(=O)O)cc3)cc21 | 244.5 to 245.8 °C |
| CC1(C)CCC(C)(C)c2cc(-c3cccs3)c(/C=C/c3ccc(C(=O)O)cc3)cc21 | 242.5 to 243.6 °C |
| CC1(C)CCC(C)(C)c2cc(CSC3CCCC3)c(/C=C/c3ccc(C(=O)O)cc3)cc21 [Compound 4] | 209.4 to 211.3 °C |
| COCCOCc1cc2c(cc1/C=C/c1ccc(C(=O)O)cc1)C(C)(C)CCC2(C)C [Compound 5] | 55.9 to 58.2 °C |
| CC1(C)CCC(C)(C)c2cc(CSCC(O)CO)c(/C=C/c3ccc(C(=O)O)cc3)cc21 (centres unmarked) [Compound 9] | 174.8 to 175.9 °C |
| CCOCCCc1cc2c(cc1/C=C/c1ccc(C(=O)O)cc1)C(C)(C)CCC2(C)C [Compound 10, 4-{(E)-2-[3-(3-ethoxypropyl)-5,8,8-tetramethyl-5,6,7,8-tetrahydro-naphthalen-2-yl]vinyl}benzoic acid] | 169.4 to 173.3 °C |
| CC1(C)CCC(C)(C)c2cc(CCCO)c(/C=C/c3ccc(C(=O)O)cc3)cc21 [Compound 12, 4-{(E)-2-[3-(3-hydroxypropyl)-5,5,8,8-tetramethyl-5,6,7,8-tetrahydro-naphthalen-2-yl]vinyl}benzoic acid] | 212.8 to 213.2 °C |
| CC(C)SCc1cc2c(cc1/C=C/c1ccc(C(=O)O)cc1)C(C)(C)CCC2(C)C [Compound 13] | 208.6 to 210.8 °C |
| Cn1cnnc1SCc1cc2c(cc1/C=C/c1ccc(C(=O)O)cc1)C(C)(C)CCC2(C)C [Compound 22] | 251.6 to 252.6 °C |
| Cc1nnc(SCc2cc3c(cc2/C=C/c2ccc(C(=O)O)cc2)C(C)(C)CCC3(C)C)s1 [Compound 23] | 218.1 to 218.5 °C |
| Cc1nnc(SCCc2cc3c(cc2/C=C/c2ccc(C(=O)O)cc2)C(C)(C)CCC3(C)C)s1 [Compound 27, 4-((E)-2-{5,5,8,8-tetramethyl-3-[3-(5-methyl-[1,3,4]thiadizol-2ylsulfanyl)-ethyl]-5,6,7,8-tetrahydro-naphthalen-2-yl}vinyl)benzoic acid] | 244.7 to 245.2 °C |
| Cc1nnc(SCCCc2cc3c(cc2/C=C/c2ccc(C(=O)O)cc2)C(C)(C)CCC3(C)C)s1 [Compound 28, 4-((E)-2-{5,5,8,8-Tetramethyl-3-[3-(5-methyl-[1,3,4]thiadiazol-2-ylsulfanyl)-propyl]-5,6,7,8-tetrahydro-naphthalen-2-yl}vinyl)benzoic acid] | 144 to 145.3 °C |
| CC1(C)CCC(C)(C)c2cc(CCn3cccn3)c(/C=C/c3ccc(C(=O)O)cc3)cc21 [Compound 29, 4-{(E)-2-[5,5,8,8-tetramethyl-3-(2-pyrazol-1-ylethyl)-5,6,7,8-tetrahydro-naphthalen-2-yl]vinyl}benzoic acid] | 235.3 to 235.9 °C |
| CC1(C)CCC(C)(C)c2cc(CCCn3cccn3)c(/C=C/c3ccc(C(=O)O)cc3)cc21 [Compound 30, 4-{(E)-2-[5,5,8,8-tetramethyl-3-(3-pyrazol-1-ylpropyl)-5,6,7,8-tetrahydro-naphthalen-2-yl]vinyl}benzoic acid] | 181.5 to 182.5 °C |
| CC1(C)CCC(C)(C)c2cc(CCc3nccs3)c(/C=C/c3ccc(C(=O)O)cc3)cc21 [Compound 40, 4-{(E)-2-[5,5,8,8-tetramethyl-3-(2-thiazol-2-yl-ethyl)-5,6,7,8-tetrahydro-naphthalen-2-yl)vinyl]benzoic acid] | 215.8 to 217.5 °C |
| CC1(C)CCC(C)(C)c2cc(CCc3ncccn3)c(/C=C/c3ccc(C(=O)O)cc3)cc21 [Compound 41] | 228 to 228.9 °C |

Continued, values first:

| melting point | Structure (SMILES) |
| --- | --- |
| 238.3 to 241.5 °C and 238.5 to 241.5 °C | CC1(C)c2cc(/C=C/c3ccc(C(=O)O)cc3)c(Cn3cccn3)cc2C(C)(C)[C@@H](O)[C@H]1O (stereo in doubt) [Compound 148, 4-[(E)-2-(5,5,8,8-tetramethyl-3-pyrazol-1-ylmethyl-6,7-cis-dihydroxy-5,6,7,8-tetrahydro-naphthalen-2-yl)vinyl]-benzoic acid] |
| 216.3 to 217.3 °C | Cc1ccc(Cc2cc3c(cc2/C=C/c2ccc(C(=O)O)cc2)C(C)(C)CCC3(C)C)cc1 [Compound 42, 4-{(E)-2-[5,5,8,8-tetramethyl-3-(4-methylbenzyl)-5,6,7,8-tetrahydro-naphthalen-2-yl]vinyl}benzoic acid] |
| 204.3 to 205.7 °C | CC1(C)CCC(C)(C)c2cc(Cc3ccc(F)cc3F)c(/C=C/c3ccc(C(=O)O)cc3)cc21 [Compound 43, 4-{(E)-2-[5,5,8,8-tetramethyl-3-(2,4-difluorobenzyl)-5,6,7,8-tetrahydro-naphthalen-2-yl]vinyl}benzoic acid] |
| 229.1 to 229.6 °C | CC1(C)CCC(C)(C)c2cc(Cc3cccs3)c(/C=C/c3ccc(C(=O)O)cc3)cc21 [Compound 44, 4-[(E)-2-(5,5,8,8-tetramethyl-3-thiophen-2ylmethyl-5,6,7,8-tetrahydro-naphthalen-2-yl)vinyl]benzoic acid] |
| 168 to 174 °C | CC1(C)CCC(C)(C)c2cc(Cn3cccn3)c(/C=C/c3ccc(C(=O)O)s3)cc21 [Compound 45, 5-[(E)-2-(5,5,8,8-tetramethyl-3-pyrazol-1-ylmethyl-5,6,7,8-tetrahydro-naphthalen-2-yl)vinyl]-thiophene-2-carboxylic acid] |
| 177 to 179 °C | CC1(C)CCC(C)(C)c2cc(Cn3cccn3)c(/C=C/c3ccc(C(=O)O)c(F)c3)cc21 [Compound 47, 2-Fluoro-4-[(E)-2-[5,5,8,8-tetramethyl-3-pyrazol-1-ylmethyl-5,6,7,8-tetrahydronaphthalen-2-yl)vinyl]benzoic acid] |
| 241.6 to 242 °C | CC1(C)CC(O)C(C)(C)c2cc(Cn3cccn3)c(/C=C/c3ccc(C(=O)O)cc3)cc21 (centres unmarked) [Compound 55, 4-[(E)-2-(5,5,8,8-tetramethyl-3pyrazol-1-ylmethyl-6-hydroxy-5,6,7,8-tetrahydro-naphthalen-2-yl)vinyl]benzoic acid] |
| 233 to 233.5 °C | CC1(C)CC(=O)C(C)(C)c2cc(Cn3cccn3)c(/C=C/c3ccc(C(=O)O)cc3)cc21 [Compound 133, 4-[(E)-2-(5,5,8,8-tetramethyl-3-pyrazol-1-ylmethyl-6-oxo-5,6,7,8-tetrahydro-naphthalen-2-yl)vinyl]-benzoic acid] |
| 247.6 to 248.4 °C | CC1(C)CC(O)C(C)(C)c2cc(/C=C/c3ccc(C(=O)O)cc3)c(Cn3cccn3)cc21 (centres unmarked) [Compound 137, (E)-4-[2-(3-(pyrazole-1-ylmethyl)-7-hydroxy-5,5,8,8-tetramethyl-5,6,7,8-tetrahydronaphthalene-2-yl)vinyl]benzoic acid] |
| 264.8 to 265.9 °C | CC1(C)CC(=O)C(C)(C)c2cc(/C=C/c3ccc(C(=O)O)cc3)c(Cn3cccn3)cc21 [Compound 144, (E)-4-[2-(3-(pyrazole-1-ylmethyl)-7-oxo-5,5,8,8-tetramethyl-5,6,7,8-tetrahydronaphthalene-2-yl)vinyl]benzoic acid] |
| 283 to 283.5 °C | CC1(C)CCC(C)(C)c2cc(Sc3ncccn3)c(/C=C/c3ccc(C(=O)O)cc3)cc21 [Compound 155, 4-{(E)-2-[5,5,8,8-Tetramethyl-3-(mercaptopyrmidin-2-yl)-5,6,7,8-tetrahydro-naphthalen-2-yl)vinyl]benzoic acid] |
| 248 to 249 °C | CC1(C)CCC(C)(C)c2cc(Cn3cccn3)c(/C=C/c3ccc(C(N)=O)cc3)cc21 [Compound 165, 4-[(E)-2-(5,5,8,8-tetramethyl-3-pyrzol-1-ylmethyl-5,6,7,8-tetrahydro-naphthalen-2-yl)vinyl]benzamide] |
| 171.6 to 172.5 °C | CC1(C)CCC(C)(C)c2cc(Cn3cccn3)c(/C=C/c3ccc(C(=O)N4CCCCC4)cc3)cc21 [Compound 166, 4-[(E)-2-(5,5,8,8-tetramethyl-3-pyrzol-1-ylmethyl-5,6,7,8-tetrahydro-naphthalen-2-yl)vinyl]benzoic acid piperidine amide] |
